≈ marks a conversion by molar mass, not a printed value.
Key:
Type in all cases: cell-based
[1] = system: Salmonella typhimurium TA98 strain and TA100 strain; assay: Growth inhibitory action and bactericidal action on salmonella (preincubation method, with and without S9 mix); conditions: TA98 and TA100, presence or absence of S9 mix; for Bactericidal action: lowest concentration at which all bacterial cells were killed; for Growth inhibition: lowest concentration at which growth was inhibited
Procedure: Growth inhibitory action and bactericidal action on salmonella
1) Preparation of Test-Substance Solution
Test substances (compounds listed in Table 1) each were prepared by dissolving it in DMSO when used. Preparation was made in such a manner that the highest dose became 5000 μg/plate and the dose lower than this was prepared by a dilution method. In the table, reference numerals of individual compounds correspond to the numbers of the individual compounds synthesized in the above Examples (the same applies to the following Tables).
Salmonella typhimurium TA98 strain and TA100 strain were used.
These were supplied by Japan Bioassay Research Center, proliferated and examined for genetic properties and other properties in accordance with customary methods, in advance. After these strains were confirmed to have these properties, they are cryopreserved (−80° C.) with a DMSO-added medium; and thawed for use in each test.
3) A cryopreserved strain was thawed and inoculated in a 2.5% aqueous nutrient broth (OXOID No. 2) solution and cultured while shaking at 37° C. for 7 hours to obtain a cell suspension, which was subjected to tests.
A minimum glucose agar plate medium (Vital Media AMT-S, manufactured by Kyokuto Pharmaceutical Industrial Co., Ltd.) was used.
The top agar was prepared when used by blending an aqueous solution of 0.5 mM L-histidine and 0.5 mM D-(+)-biotin with an aqueous solution prepared by adding Bacto Agar (Difco) (0.6%) and sodium chloride (0.5%).
S9 was purchased from Kikkoman; whereas a cofactor was previously prepared in accordance with a method known in the art. They were mixed in a customary method to prepare S9 mix.
Using a test system containing S9 mix and a test system containing no S9 mix, a test was carried out in accordance with a preincubation method. As the dose selection, the highest dose was specified as […], which was then serially diluted in a common ratio of 2 to prepare a total of 15 doses to be used in the test.
To a sterile test tube, a test solution (0.1 mL) and 0.1 M Na-phosphate buffer or S9 mix (0.5 mL) and a cell suspension (0.1 mL) were sequentially dispensed. Pre-incubation was carried out at 37° C. for 20 minutes while shaking. After completion of the pre-incubation, top agar (2 mL) kept warm at 45° C. was added, mixed and placed on a minimum glucose agar plate medium. After solidification, the plate was turned upside down and cultured at 37° C. for 48 hours.
After completion of the culture, the state of microbial growth was observed by a stereomicroscope. After a precipitate on the plate was observed, revertant colonies were counted by the naked eye or a colony counter.
7) Criteria for Determination
Growth of both TA98 and TA100 strains was examined in the presence or absence of S9 mix. Among the resultant concentrations at which growth was inhibited, the lowest concentration was specified as the growth inhibitory concentration. Similarly, the bactericidal concentration was specified as the lowest concentration at which all bacterial cells were killed.

[2] = system: Staphylococcus aureus MRSAIID 1677 (methicillin-resistant staphylococcus aureus; MRSA); assay: Antimicrobial test, minimum inhibitory concentration (MIC), MRSA; conditions: 36±1° C., 24 hours
Procedure: Antimicrobial/Antifungal Test
Measurement of the Minimum Inhibitory Concentration (MIC) of a Test Substance
The minimum inhibitory concentration (MIC) of test substances (Compound 3, Compound 7) on a microorganism was measured.
1) Test Microbe (a) Staphylococcus aureus MRSAIID 1677 (methicillin-resistant staphylococcus aureus; MRSA) (b) Trichophyton mentagrophytes NBRC5466 (trichophyton)
2) Preparation of Microbe Solution for Inoculation
Test microbe (a): A strain cryopreserved was smeared on TSA medium and cultured at 36±1° C. for 24 hours. Grown colonies were scraped out and suspended in a test organism preparation solution, filtered with absorbent cotton. The number of cells was controlled to be about 10^6-7 CFU/mL. The test microbe solution prepared was serially diluted by 10-fold and cultured at 36±1° C. for 48 hours and the microbe cells were counted.
3) Serial Dilution of Test Substance
Two-fold serial dilutions of a test substance were prepared in the following procedure. To a test substance (1 mg), a medium (5 mL) for measuring the sensitivity of each microbe strains was added to obtain a stock solution of 200 μg/mL. […]
A test microbe solution (5 μL) was added dropwise to individual wells of the microplate. […] After culture, whether the microbe proliferated or not was determined by the naked eye. […]

[3] = system: Streptococcus mutans NBRC13955; assay: Antimicrobial test on oral bacteria, bactericidal effect test; conditions: for bactericidal action on Streptococcus mutans cells: one minute
Procedure: Antimicrobial Test on Oral Bacteria
1. Antimicrobial Action on Streptococcus mutans
The antimicrobial effect of two types of test substances (Compound 3 and Compound 7) on Streptococcus mutans was evaluated.
1) Preparation of Test Microbe
A microbe strain (Streptococcus mutans NBRC13955) cryopreserved was cultured in TSA medium at 36±1° C. for 18 to 24 hours. The cultured microbial cells were transferred to a fresh TSA medium and cultured at 36±1° C. for 18 to 24 hours. The grown colonies were scraped out and suspended in sterile ion-exchange water to prepare a solution having about 10^7 CFU/mL, which was used as a test microbe solution.
2) Preparation of Test Solution […]
3) Bactericidal Effect Test
From individual test solutions previously kept at 25±2° C., an aliquot (10 mL) was dispensed to centrifuge tubes of 50 mL in volume. To each of the centrifuge tubes, the test microbe solution (0.1 mL) was inoculated, mixed and allowed to react. After a predetermined reaction time, the resultant test solution (1 mL) was taken out. To this, 9 mL of a deactivator (SCDLP medium (manufactured by Eiken Chemical Co., Ltd.), which was confirmed as effective deactivator), was added to inactivate the bactericidal component of the test solution. The number of microbial cells in the resultant sample solution was determined. The solution obtained by carrying out the same procedure except that a sterile physiological saline was used in place of the test solution, was used as a control.
4) Determination of the Number of Microbial Cells
Using the sample solution as a stock solution, serial dilution was performed with a sterile physiological saline to obtain 10-fold serial dilutions. 1 mL of the sample solution or each of the dilutions was aseptically transferred to a petri dish, mixed with TSA medium (20 mL), solidified and cultured at 36±2° C. for 48 hours. After the culture, colonies grown on the medium were counted to obtain the number of test microbe cells per test solution (1 mL) (lower limit of quantification: 10 CFU/test solution (1 mL)).

Compound	Bactericidal action [1]	Growth inhibition [1]	MIC [2]	number of the cells reduced (fraction) ([3]; 0.01 w/v %, 5 minutes)	number of test microbe cells ([3]; 0.01 w/v %, working time 1 min)	number of test microbe cells ([3]; 0.01 w/v %, working time 5 min)	bactericidal action on Streptococcus mutans cells ([3]; 0.05 w/v %)	number of test microbe cells ([3]; 0.05 w/v %, working time 1 min)	number of test microbe cells ([3]; 0.05 w/v %, working time 5 min)	number of test microbe cells ([3]; 0.001 w/v %, working time 1 min)	number of test microbe cells ([3]; 0.001 w/v %, working time 5 min)	bactericidal action on Streptococcus mutans cells ([3]; 0.005 w/v %)	number of test microbe cells ([3]; 0.005 w/v %, working time 1 min)	number of test microbe cells ([3]; 0.005 w/v %, working time 5 min)
O=C(Nc1ccc(S(F)(F)(F)(F)F)cc1)c1cc(O)c(O)c(O)c1 [Compound 3, 4-(3,4,5-trihydroxybenzoylamino)pentafluorosulfanylbenzene]	625 μg/plate	19.5 μg/plate	6.3 µg/mL (≈ 17 µM)	1/10	380,000 CFU/test solution (1 mL)	34,000 CFU/test solution (1 mL)	almost completely killed	<10 CFU/test solution (1 mL)	<10 CFU/test solution (1 mL)					
O=C(Oc1ccc(S(F)(F)(F)(F)F)cc1)c1cc(O)c(O)c(O)c1 [Compound 7, 4-(3,4,5-trihydroxybenzoyloxy)pentafluorosulfanylbenzene]	156 μg/plate	19.5 μg/plate	0.8 µg/mL (≈ 2.15 µM)							460,000 CFU/test solution (1 mL)	280,000 CFU/test solution (1 mL)	almost completely killed	<10 CFU/test solution (1 mL)	<10 CFU/test solution (1 mL)

Reference: US9682931B2, “Aryloyl(oxy or amino)pentafluorosulfanylbenzene compound, pharmaceutically acceptable salt thereof, and prodrugs thereof” (UBE INDUSTRIES, LTD., priority 2013, dated 2017)
